# Test results reported in PMC13192270, “RhlR quorum-sensing receptor ligand sensitivity regulates the differential expression of phenazine genes in Pseudomonas aeruginosa” (Journal of Bacteriology, 2026).
# What was measured:
# [1] = molecular target: T1, WT RhlR in ΔrhlI strain (Pseudomonas aeruginosa, UniProt P54292); experiment: ChIP-seq of RhlR-binding sites; type: cell-based; settings: 2 µM C4HSL
# T1 construct: Comparison of ChIP enrichment from the ΔrhlI and ΔrhlI RhlR T58L strains; endogenous in cells; host or cells: P. aeruginosa UCBPP-PA14 ΔrhlI
# T1 sequence (P54292 1-241): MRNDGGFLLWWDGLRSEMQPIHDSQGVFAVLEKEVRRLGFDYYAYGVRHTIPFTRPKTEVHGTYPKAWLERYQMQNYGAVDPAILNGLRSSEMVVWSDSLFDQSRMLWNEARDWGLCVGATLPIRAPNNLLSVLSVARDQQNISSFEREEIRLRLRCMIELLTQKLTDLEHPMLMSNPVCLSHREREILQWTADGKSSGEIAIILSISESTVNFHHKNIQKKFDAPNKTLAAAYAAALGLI
# Method: P. aeruginosa strains were grown overnight, back diluted 1:100 in fresh LB media, and grown to an OD600 = 2.0. Crosslinking, lysis, and immunoprecipitation were performed as previously described ([37]).
# [2] = molecular target: T2, RhlR A44W (Pseudomonas aeruginosa, UniProt P54292, A44W); experiment: E. coli prhlA-luxCDABE luciferase reporter assay; type: cell-based; settings: even at the highest dose of C4HSL tested
# T2 construct: expressed in transfected cells; host or cells: E. coli carrying pBAD-A-rhlR mutant, pCS26-prhlA-luxCDABE and pACYC-pqsE or empty pACYC
# Text: Previous analysis of the RhlR LBP focused on highly conserved residues that were known from other AHL-binding proteins to be important contacts for AHL molecules, particularly the lactone head group. We performed conservation analyses on 300 LuxR-type receptors to determine variable and moderately conserved residues in the LBP (Fig. 1B) and, in conjunction with our previously determined experimental structure of WT RhlR bound to the synthetic agonist mBTL, used for docking C4- and C6HSL. Based on our docking simulations, C4- and C6HSL occupy a similar position in the LBP as mBTL, a highly efficacious activator of RhlR (Fig. 1C; Fig. S1). We targeted residues A44, G46, T58, L69, Y72, D81, I84, W96, and W108 (Fig. 1B and C). These residues were selected because of their proximity to the acyl tail of C4HSL, as well as the differences in conservation that are observed at these sites. […] Transcription was monitored by light production via the expression of the luxCDABE operon controlled by the RhlR-dependent promoter of rhlA. […]
# The range of responses to substitutions is best highlighted by changes at residue T58 (Fig. 2A). […] Indeed, of the LuxR-AHL experimentally determined structures, this region of the LBP is typically occupied by the acyl tail of long-chain AHLs or a hydrophobic residue ([5], [27], [29], [30], [42], [43]), a point we return to in the discussion. […]
smiles,measurement,setting,value
"CCCC(=O)N[C@H]1CCOC1=O [C4HSL, N-butyryl-L-homoserine lactone]","ChIP-seq enrichment at PA14_01490 (rahU) (peak 139,733)",[1],"1,797.7"
same,"ChIP-seq enrichment at PA14_06320 (peak 560,072)",[1],"1,705.2"
same,"ChIP-seq enrichment at PA14_10360 (peak 895,433)",[1],"1,134.9"
same,"ChIP-seq enrichment at PA14_16100*, PA14_16110 (peak 1,372,370)",[1],"1,180.9"
same,"ChIP-seq enrichment at PA14_18800 (peak 1,620,628)",[1],664.1
same,"ChIP-seq enrichment at PA14_18810 operon (peak 1,621,028)",[1],127.1
same,"ChIP-seq enrichment at PA14_20130, PA14_20140 (fpr) (peak 1,735,823)",[1],258.2
same,"ChIP-seq enrichment at PA14_21020 (azeB) operon, PA14_21030 (peak 1,816,906)",[1],"4,251.6"
same,"ChIP-seq enrichment at PA14_22090 (peak 1,921,598)",[1],402.5
same,"ChIP-seq enrichment at PA14_28250*, PA14_28260 (peak 2,444,398)",[1],126.8
same,"ChIP-seq enrichment at PA14_29620, fhp operon (peak 2,568,048)",[1],"2,516.7"
same,"ChIP-seq enrichment at PA14_30570, PA14_30580 (vqsR) (peak 2,647,472)",[1],770.7
same,"ChIP-seq enrichment at PA14_30840* (peak 2,677,542)",[1],"7,49.74"
same,"ChIP-seq enrichment at PA14_37745 operon (peak 3,364,761)",[1],408.8
same,"ChIP-seq enrichment at PA14_48140 operon (peak 4,285,523)",[1],311.1
same,"ChIP-seq enrichment at PA14_48530 operon (peak 4,313,855)",[1],838.3
same,"ChIP-seq enrichment at PA14_49310 (peak 4,382,169)",[1],"1,250.8"
same,"ChIP-seq enrichment at PA14_49740, PA14_49750 operon (peak 4,425,570)",[1],"1,588.8"
same,"ChIP-seq enrichment at PA14_57970*, PA14_57980 (peak 5,159,548)",[1],826
same,"ChIP-seq enrichment at PA14_59180* (peak 5,268,881)",[1],381.4
same,"ChIP-seq enrichment at PA_48530* (peak 4,314,560)",[1],258.8
same,"ChIP-seq enrichment at arcD operon (peak 6,093,032)",[1],"1,302.3"
same,"ChIP-seq enrichment at hcnA operon, exoY (peak 3,236,436)",[1],"2,43.83"
same,"ChIP-seq enrichment at hsiA2 operon, hcpD (peak 3,831,541)",[1],"1,370.2"
same,"ChIP-seq enrichment at lasA (peak 3,600,666)",[1],239.4
same,"ChIP-seq enrichment at lasB (peak 1,387,361)",[1],597.9
same,"ChIP-seq enrichment at lecB, PA14_20620 operon (peak 1,774,336)",[1],"16,502.8"
same,"ChIP-seq enrichment at pa1L (peak 2,721,761)",[1],204.8
same,"ChIP-seq enrichment at peak 5,414,219",[1],519
same,"ChIP-seq enrichment at phzA1 operon, phzM (peak 813,529)",[1],"5,438.8"
same,"ChIP-seq enrichment at phzA2 operon (peak 3,561,969)",[1],575.2
same,"ChIP-seq enrichment at phzB1*, phzC1 (peak 812,427)",[1],"1,614.1"
same,"ChIP-seq enrichment at phzB2*, phzC2 (peak 3,561,157)",[1],214.5
same,"ChIP-seq enrichment at phzH (peak 64,211)",[1],"1,937.1"
same,"ChIP-seq enrichment at rhlA operon (peak 1,648,391)",[1],"4,107.6"
same,"ChIP-seq enrichment at rhlI (peak 1,651,804)",[1],562.1
same,"ChIP-seq enrichment at rmlB operon (peak 6,082,366)",[1],"2,46.6"
same,"ChIP-seq enrichment at rpsL operon (peak 754,615)",[1],580.9
same,"ChIP-seq enrichment at tnpS, tnpT operon (peak 3,188,223)",[1],365.2
same,activation by C4HSL in the reporter system,[2],not activated
